Data as given in US7091369B2, “Synthesis of polyconjugated fatty acids” (Board of Trustees Operating Michigan State University, priority 2003, dated 2006).

Legend:
[1] = spontaneous isomerisation at room temperature monitored by HPLC; type: physicochemical
Description: The main difference between the spectra is the hypsochromic shift of the Compound 2 peak maxima of about 3 nm.

Row | SMILES | oxidative metabolism (HEK293 cells) | elongation to a 22 carbon fatty acid (HEK293 cells; compared with AA or EPA) | cellular uptake and assimilation into complex lipids (HEK293 cells; fractionation of organic extracts on aminopropyl columns) | stability (geometrical isomerisation) [1]
1 | CC/C=C\C/C=C\C/C=C/C=C/C=C/C=C/CCCC(=O)O [5E,7E,9E,11E,14Z,17Z-eicosahexaenoic acid] | appears to be oxidized through a monooxygenation system in HEK293 cells, and the products released to the medium | appeared not to be elongated efficiently to a 22 carbon fatty acid | taken up by the cells and assimilated into complex lipids | 
2 | CC/C=C\C/C=C\C\C=C/C=C/C=C/C=C/CCCC(=O)O [Compound 1, 5E,7E,9E,11Z,14Z,17Z-eicosahexaenoic acid] |  |  |  | spontaneous room temperature conversion of Compound 1 to Compound 2
